The results in this text go back to PubChem BioAssay AID743308 (Sanford-Burnham Center for Chemical Genomics, 2014).

pIC50: −log10 of the molar value.

As a reminder, the pIC50 is the negative decadic logarithm of the IC50, by convention in mol/L.

The assay has as its target Low molecular weight phosphotyrosine protein phosphatase (Homo sapiens) (UniProt P24666). Description: inhibition of human LMPTP enzyme activity – biochemical, absorbance, pNPP substrate, LMPTP-A isoform, set 2, orthogonal assay, dose response (AID 743308). The note with it: recombinant LMPTP-A.

Low molecular weight phosphotyrosine protein phosphatase (Homo sapiens), sequence (P24666 whole entry, looked up, canonical isoform): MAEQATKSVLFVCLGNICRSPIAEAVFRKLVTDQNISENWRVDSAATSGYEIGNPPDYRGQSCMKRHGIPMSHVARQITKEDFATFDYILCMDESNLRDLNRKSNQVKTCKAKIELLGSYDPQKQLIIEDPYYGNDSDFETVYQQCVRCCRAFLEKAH

Consider `COc1ccc(-c2cc(NCCCN3CCCCC3)c3ccccc3n2)cc1`, for which the pIC50 is 5.45.
